Usually Kd stands for the constant that tells how readily two partners part at equilibrium. Low readings indicate higher affinity, high ones lower affinity.

Among the data in ChEMBL document CHEMBL1125116 (J Med Chem, 1990) are Kd values, retold here.

In the assay the target is D(2) dopamine receptor (Rattus norvegicus, UniProt P61169). The assay is described as follows: Evaluated in vitro for the affinity towards Dopamine receptor D2 of rat striatal tissue.

Structures are written as SMILES.

Sequence of D(2) dopamine receptor (P61169 whole entry): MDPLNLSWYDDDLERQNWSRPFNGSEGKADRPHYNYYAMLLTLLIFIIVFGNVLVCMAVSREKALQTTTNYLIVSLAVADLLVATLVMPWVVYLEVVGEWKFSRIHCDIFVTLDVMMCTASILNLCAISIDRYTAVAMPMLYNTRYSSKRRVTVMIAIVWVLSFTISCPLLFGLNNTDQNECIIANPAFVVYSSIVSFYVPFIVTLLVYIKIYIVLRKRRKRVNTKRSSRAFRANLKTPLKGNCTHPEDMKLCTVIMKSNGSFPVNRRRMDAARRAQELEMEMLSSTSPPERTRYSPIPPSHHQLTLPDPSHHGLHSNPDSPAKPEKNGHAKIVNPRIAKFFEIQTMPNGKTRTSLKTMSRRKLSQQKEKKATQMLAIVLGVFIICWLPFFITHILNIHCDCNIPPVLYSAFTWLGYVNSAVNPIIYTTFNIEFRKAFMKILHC

In turn, `O=C(CCCN1CCC2(CC1)C(=O)NCN2c1ccccc1)c1ccc(F)cc1I` displayed a Kd of 250 pM.
